{"source": "paper PMC5537347", "about": "“A short D-enantiomeric antimicrobial peptide with potent immunomodulatory and antibiofilm activity against multidrug-resistant Pseudomonas aeruginosa and Acinetobacter baumannii” (Scientific Reports, 2017)", "key": {"IL-6": {"system": "IL-6", "assay": "Anti-inflammatory effect on LPS-stimulated macrophages, ELISA", "type": "cell-based, murine", "settings": "J774A.1 cells, LPS 150 ng/mL, six hours", "description": "(§1) Figure 3 Ability of peptides to neutralize LPS and reduce inflammatory cytokines expression. (A) LPS binding activity of peptides. Peptides at different concentrations were incubated with one endotoxin unit (EU) of LPS at 37 °C for 30 minutes. […] The binding of peptides with LPS is expressed as percent change relative to the untreated samples. (B) Anti-inflammatory effect of peptides on LPS-stimulated macrophages. J774A.1 cells were stimulated with LPS (150 ng/mL final concentration) in the presence of different concentrations of peptides. Cells stimulated with LPS alone and untreated cells served as controls. Cells were incubated for six hours at 37 °C before the supernatant from each treatment group was collected. Detection of tumor necrosis factor-α (TNF-α) and interleukin-6 (IL-6) in supernatants was determined using ELISA. Cytokine levels are expressed as percent change relative to the LPS-stimulated control. Statistical analysis was calculated using one-way ANOVA, with post hoc Tukey’s multiple comparisons test. P < 0.05 was considered significant. One asterisk (*) indicates significant difference with the negative control.\n(§2) To assess the anti-inflammatory effect of our peptides on LPS-stimulated macrophages, J774A.1 cells were seeded and incubated as described above (for toxicity assessment). Next, the cells were stimulated with LPS (150 ng/ml final concentration) in the presence of different concentrations of peptides (RR and D-RR4). Cells stimulated with LPS alone and untreated cells served as controls. Cells were incubated for six hours at 37 °C and the supernatant from each treatment was collected and stored at −20 °C until use. Tumor necrosis factor-α (TNF-α) and interleukin-6 (IL-6) present in the supernatant was quantified using ELISA, as described previously. Cytokine levels were presented as the percent change relative to the LPS-stimulated control, using triplicate samples for each treatment condition."}, "TNF-α": {"system": "TNF-α", "assay": "Anti-inflammatory effect on LPS-stimulated macrophages, ELISA", "type": "cell-based, murine", "settings": "J774A.1 cells, LPS 150 ng/mL, six hours", "description": "as §1, §2"}, "[1]": {"system": "C. elegans strain glp-4;sek 1", "assay": "Toxicity of peptides in uninfected C. elegans", "type": "in vivo, Caenorhabditis elegans", "settings": "worms grown four days with peptide; D-RR4 and colistin at 8 × MIC", "description": "To test the efficacy of the synthetic peptides to protect against infections in vivo, we utilized a C. elegans model of bacterial infection. This model has been used extensively for early-stage evaluation of promising antimicrobials, [35], [36]. Initially, the lethal dose of D-RR4 against uninfected nematodes was determined.\n(§3) (A) Evaluation of toxicity of peptides in Caenorhabditis elegans. C. elegans strain glp-4;sek 1 was grown for four days in the presence of peptides at different concentrations. Worms were monitored daily and the live worms were counted. Results are expressed as a Kaplan-Meier survival curve. (B) Evaluation of antimicrobial activity of peptides to reduce the bacterial CFU inside infected Caenorhabditis elegans. C. elegans strain glp-4; sek 1 were infected with P. aeruginosa PAO1, colistin-resistant P. aeruginosa 1109, or A. baumannii ATCC BAA-1605. […] After treatment, worms were lysed and bacteria were counted. One asterisk (*) indicates significant difference with the negative control. Two asterisks (**) indicates significant difference with the monotherapy treatment (P < 0.05). Results are expressed as means from three biological replicates ± standard deviation. (C) Efficacy of peptides in a Caenorhabditis elegans model of bacterial infection. […] Worms were monitored daily and the live worms were counted. Results are expressed as a Kaplan-Meier survival curve. C. elegans receiving no treatment served as a negative control."}, "A. baumannii": {"system": "A. baumannii", "type": "cell-based"}, "[2]": {"system": "A. baumannii ATCC BAA-1605", "assay": "C. elegans infection model (bacterial burden and survival)", "type": "in vivo, Caenorhabditis elegans", "settings": "8 × MIC", "description": "as §3, with “elegans.” for “elegans. C. elegans strain glp-4; sek 1 were infected with P. aeruginosa PAO1, colistin-resistant P. aeruginosa 1109, or A. baumannii ATCC BAA-1605.”, “One asterisk (*) indicates significant difference with the negative control. Two asterisks (**) indicates significant difference with the monotherapy treatment (P < 0.05).” left out\n(§4) Infection and treatment of C. elegans was done, as described previously, with the following modifications, [53], [54]. […] After infection, worms were collected and washed with PBS three times. Worms (~30 per sample) were transferred either to microcentrifuge tubes (for survival assessment) or 96-well plates (for bacterial CFU determination). […] Untreated worms served as a negative control. To assess the survival of infected C. elegans, worms were assessed for viability (live worms are sinusoidal with movement, whereas dead worms are rigid rods). In order to assess the bacterial load in worms, worms were first washed three times with PBS. They were subsequently lysed by addition of 200 mg of 1.0-mm silicon carbide particles (Biospec Products, Bartlesville, OK) to each tube and vortexing for one minute. Bacteria were plated onto TSA plates containing 100 µg/ml ampicillin to permit the selective growth of P. aeruginosa and A. baumannii over Escherichia coli OP50."}, "P. aeruginosa PAO1": {"system": "P. aeruginosa PAO1", "assay": "C. elegans infection model (bacterial burden and survival)", "type": "in vivo, Caenorhabditis elegans", "settings": "8 × MIC", "description": "as §3, with “elegans.” for “elegans. C. elegans strain glp-4; sek 1 were infected with P. aeruginosa PAO1, colistin-resistant P. aeruginosa 1109, or A. baumannii ATCC BAA-1605.”, “One asterisk (*) indicates significant difference with the negative control. Two asterisks (**) indicates significant difference with the monotherapy treatment (P < 0.05).” left out\nas §4"}, "[3]": {"system": "colistin-resistant P. aeruginosa 1109", "assay": "C. elegans infection model (bacterial burden and survival)", "type": "in vivo, Caenorhabditis elegans", "description": "as §3, with “elegans.” for “elegans. C. elegans strain glp-4; sek 1 were infected with P. aeruginosa PAO1, colistin-resistant P. aeruginosa 1109, or A. baumannii ATCC BAA-1605.”, “One asterisk (*) indicates significant difference with the negative control. Two asterisks (**) indicates significant difference with the monotherapy treatment (P < 0.05).” left out\nas §4"}, "[4]": {"system": "P. aeruginosa and A. baumannii isolates", "text": "(§5) The broth microdilution technique was utilized to assess the MIC of designed peptides according to the guidelines of the Clinical and Laboratory Standards Institute (CLSI)[37]."}, "[5]": {"system": "colistin-resistant P. aeruginosa isolated from cystic fibrosis patients", "text": "as §5"}}, "note": "Where two headings read alike, the source gives them in different places.", "data": [{"substance": "Colistin [reference compound]", "values": [{"measurement": "decrease of IL-6 production", "setting": "IL-6; 10 µM", "value": "> 95", "unit": "%"}, {"measurement": "decrease of IL-6 production", "setting": "IL-6; 20 µM", "value": "> 95", "unit": "%"}, {"measurement": "decrease of TNF-α production", "setting": "TNF-α; 10 µM", "value": "> 95", "unit": "%"}, {"measurement": "decrease of TNF-α production", "setting": "TNF-α; 20 µM", "value": "> 95", "unit": "%"}, {"measurement": "toxicity to uninfected worms", "setting": "[1]", "value": "not toxic"}, {"measurement": "MIC", "setting": "A. baumannii; strain ATCC 19606", "value": 0.125, "unit": "µM"}, {"measurement": "MIC", "setting": "A. baumannii; strain ATCC BAA-747", "value": 0.25, "unit": "µM"}, {"measurement": "MIC", "setting": "A. baumannii; strain ATCC BAA-1605", "value": 0.25, "unit": "µM"}, {"measurement": "MIC", "setting": "A. baumannii; strain NR-9667", "value": 0.0625, "unit": "µM"}, {"measurement": "MIC", "setting": "A. baumannii; strain NR-13374", "value": 0.125, "unit": "µM"}, {"measurement": "MIC", "setting": "A. baumannii; strain NR-13375", "value": 0.125, "unit": "µM"}, {"measurement": "MIC", "setting": "A. baumannii; strain NR-13382", "value": 0.5, "unit": "µM"}, {"measurement": "MIC", "setting": "A. baumannii; strain NR-17777", "value": 0.5, "unit": "µM"}, {"measurement": "MIC", "setting": "A. baumannii; strain NR-17778", "value": 0.0625, "unit": "µM"}, {"measurement": "MIC", "setting": "A. baumannii; strain NR-17780", "value": 0.25, "unit": "µM"}, {"measurement": "MIC", "setting": "A. baumannii; strain NR-17783", "value": 0.0625, "unit": "µM"}, {"measurement": "MIC", "setting": "A. baumannii; strain NR-17784", "value": 0.0625, "unit": "µM"}, {"measurement": "MIC", "setting": "A. baumannii; strain NR-17785", "value": 0.25, "unit": "µM"}, {"measurement": "MIC", "setting": "A. baumannii; strain NR-17786", "value": 0.0625, "unit": "µM"}, {"measurement": "MIC", "setting": "A. baumannii; strain NR-19298", "value": 0.25, "unit": "µM"}, {"measurement": "MIC", "setting": "A. baumannii; strain NR-19299", "value": 0.25, "unit": "µM"}, {"measurement": "reduction of bacterial burden (CFU) in infected worms", "setting": "[2]", "value": 96, "unit": "%"}, {"measurement": "worms remaining alive", "setting": "[2]; 36 hours", "value": "remained alive"}, {"measurement": "worms remaining alive", "setting": "[2]; after 72 hours", "value": "80–85%"}, {"measurement": "reduction of bacterial burden (CFU) in infected worms", "setting": "P. aeruginosa PAO1", "value": 89, "unit": "%"}, {"measurement": "protection of infected worms (survival)", "setting": "P. aeruginosa PAO1; 24 and 36 hours", "value": "nearly complete protection"}, {"measurement": "protection of infected worms (survival)", "setting": "[3]; D-RR4 8 × MIC, colistin 1 × MIC, after 24 hours", "value": "failed to protect worms from death"}, {"measurement": "reduction of bacterial burden (CFU) in infected worms", "setting": "[3]; in vivo", "value": "unable to significantly decrease bacterial burden"}, {"measurement": "MIC50", "setting": "[4]; MIC that inhibited growth of 50% of all isolates (Table 2)", "value": 0.25, "unit": "µM"}, {"measurement": "MIC90", "setting": "[4]; MIC that inhibited growth of 90% of all isolates (Table 2)", "value": 0.5, "unit": "µM"}, {"measurement": "MIC", "setting": "[5]; strain 1125", "value": 32, "unit": "µM"}, {"measurement": "MIC", "setting": "[5]; strain 1131", "value": 64, "unit": "µM"}, {"measurement": "MIC", "setting": "[5]; strain 1133", "value": 32, "unit": "µM"}, {"measurement": "MIC", "setting": "[5]; strain 1603", "value": 64, "unit": "µM"}]}]}
